Assays:
YbhFSR [1] = biological target: T1, YbhFSR (Escherichia coli, UniProt P0AFP9+P0AFQ2); assay: whole-cell ethidium fluorescence efflux, knockout and complemented strains; assay type: cell-based; parameters: gene ybhS; native transporter in whole cells; ybhF knockout, acrB ybhF double knockout and ybhF overexpression strains compared; YbhG and TolC probably also take part; settings: 2.5 μM EB preloaded, 25 mM glucose, 50 mM KPi pH 7.0, 5 mM MgSO4, 37 °C
YbhFSR [2] = biological target: T1, YbhFSR; parameters: gene ybhS; settings: 100 μg/ml tetracycline, Mg2+ buffer pH 8.0

SMILES | whole-cell ethidium fluorescence efflux, knockout and complemented strains (YbhFSR [1]) | whole-cell tetracycline fluorescence efflux and accumulation, knockout strains (YbhFSR [2])
CC[n+]1c(-c2ccccc2)c2cc(N)ccc2c2ccc(N)cc21 [ethidium bromide] | the ybhF gene knockout reduced the ethidium efflux capacity | –
CN(C)[C@@H]1C(=O)C(C(N)=O)=C(O)[C@@]2(O)C(=O)C3=C(O)c4c(O)cccc4[C@@](C)(O)[C@H]3C[C@@H]12 [tetracycline] | – | knockout of ybhF decreased the efflux of tetracycline and increased the intracellular accumulation
